Source: the supplement of paper PMC10307832

What was measured:
Assay in all cases: relative viability (nuclei count vs DMSO), 5 days (fraction); higher = more cells survive
Linsitinib + Luminespib = compound: C[C@]1(O)C[C@@H](c2nc(-c3ccc4ccc(-c5ccccc5)nc4c3)c3c(N)nccn32)C1 [Linsitinib] + CCNC(=O)c1noc(-c2cc(C(C)C)c(O)cc2O)c1-c1ccc(CN2CCOCC2)cc1 [Luminespib] (partner 0.01 µM)
Method in brief: (§1)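 Cells from lung cancer lines were seeded into 1536-well plates and, one day later, dosed by pin tool. Treatments were either a single drug or a fixed dose of an anchor drug with five library-drug doses (not always all listed) in √10 steps. After 5 days, nuclei were stained in a one-step fixation (final 0.05% Triton X-100, 1% formaldehyde, 1 ug/ml Hoechst) and counted on 4× images, and relative viability is the treated-to-vehicle nuclei ratio, as the median of duplicate plates.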

Linsitinib + Pemetrexed = compound: C[C@]1(O)C[C@@H](c2nc(-c3ccc4ccc(-c5ccccc5)nc4c3)c3c(N)nccn32)C1 [Linsitinib] + Nc1nc2[nH]cc(CCc3ccc(C(=O)N[C@@H](CCC(=O)O)C(=O)O)cc3)c2c(=O)[nH]1 [Pemetrexed] (partner 0.2 µM)
Method in brief: as §1

Ispinesib + OSI-027 = compound: Cc1ccc(C(=O)N(CCCN)[C@@H](c2nc3cc(Cl)ccc3c(=O)n2Cc2ccccc2)C(C)C)cc1 [Ispinesib] + COc1cccc2cc(-c3nc([C@H]4CC[C@H](C(=O)O)CC4)n4ncnc(N)c34)[nH]c12 [OSI-027] (partner 0.5 µM)
Method in brief: as §1

Ispinesib + Phenformin = compound: Cc1ccc(C(=O)N(CCCN)[C@@H](c2nc3cc(Cl)ccc3c(=O)n2Cc2ccccc2)C(C)C)cc1 [Ispinesib] + N=C(N)NC(=N)NCCc1ccccc1 [Phenformin] (partner 250 µM)
Method in brief: as §1

Cell Line | relative viability (Linsitinib + Luminespib; first compound 0.01 µM) | relative viability (Linsitinib + Luminespib; first compound 0.03162 µM) | relative viability (Linsitinib + Luminespib; first compound 0.1 µM) | relative viability (Linsitinib + Luminespib; first compound 0.3162 µM) | relative viability (Linsitinib + Luminespib; first compound 1 µM) | relative viability (Linsitinib + Pemetrexed; first compound 0.01 µM) | relative viability (Linsitinib + Pemetrexed; first compound 0.03162 µM) | relative viability (Linsitinib + Pemetrexed; first compound 0.1 µM) | relative viability (Linsitinib + Pemetrexed; first compound 0.3162 µM) | relative viability (Linsitinib + Pemetrexed; first compound 1 µM) | relative viability (Ispinesib + OSI-027; first compound 0.001 µM) | relative viability (Ispinesib + OSI-027; first compound 0.003162 µM) | relative viability (Ispinesib + OSI-027; first compound 0.01 µM) | relative viability (Ispinesib + OSI-027; first compound 0.03162 µM) | relative viability (Ispinesib + OSI-027; first compound 0.1 µM) | relative viability (Ispinesib + Phenformin; first compound 0.001 µM) | relative viability (Ispinesib + Phenformin; first compound 0.003162 µM) | relative viability (Ispinesib + Phenformin; first compound 0.01 µM) | relative viability (Ispinesib + Phenformin; first compound 0.03162 µM) | relative viability (Ispinesib + Phenformin; first compound 0.1 µM)
201T | 1.05 | 1.13 | 1.02 | 1.18 | 1.1 | 0.319 | 0.272 | 0.343 | 0.287 | 0.29 | 0.828 | 0.952 | 0.834 | 0.56 | 0.181 | 0.462 | 0.533 | 0.559 | 0.427 | 0.24
A549 |  |  |  |  |  |  |  |  |  |  |  |  |  |  |  | 0.12 | 0.18 | 0.899 | 0.0923 | 0.048
A-427 | 0.757 | 0.954 | 1.01 |  | 0.993 | 0.951 | 1.03 | 0.986 |  | 0.866 | 0.508 | 0.449 | 0.571 | 0.155 | 0.181 | 0.377 | 0.415 | 0.333 | 0.168 | 0.158
ABC-1 | 0.544 | 0.392 | 0.604 | 0.519 | 0.312 |  |  |  |  |  | 0.488 | 0.524 | 0.58 | 0.203 | 0.283 | 0.278 | 0.223 | 0.289 | 0.197 | 0.226
BEN | 0.411 | 0.503 | 0.3 |  | 0.383 | 0.599 | 0.723 | 0.704 | 0.562 | 0.63 | 0.312 | 0.306 | 0.341 | 0.38 | 0.202 | 0.243 | 0.27 | 0.252 | 0.27 | 0.203
CAL-12T | 0.469 | 0.303 | 0.515 | 0.303 | 0.355 | 1.25 | 0.946 | 1.23 | 1.14 | 1.13 | 0.737 | 0.584 | 0.701 | 0.166 | 0.177 | 0.515 | 0.57 | 0.592 | 0.139 | 0.172
COR-L23 | 0.678 | 0.48 | 0.783 | 0.555 | 0.583 | 0.202 | 0.184 | 0.189 | 0.184 | 0.18 | 0.808 | 0.918 | 0.931 | 0.357 | 0.214 | 0.437 | 0.444 | 0.448 | 0.123 | 0.133
COR-L 105 | 0.857 | 0.688 | 0.644 | 0.638 | 0.581 | 0.963 | 1.1 | 1.23 | 0.771 | 0.984 | 0.769 | 0.603 | 0.585 | 0.266 | 0.305 | 0.602 | 0.455 | 0.366 | 0.216 | 0.258
ChaGo-K-1 | 0.644 | 0.535 | 0.544 | 0.699 | 0.728 | 0.263 | 0.243 | 0.271 |  | 0.261 | 0.529 | 0.627 | 0.582 | 0.627 | 0.222 | 0.519 | 0.5 | 0.529 | 0.535 | 0.172
EKVX | 0.844 | 0.842 | 0.87 | 0.688 | 0.684 |  | 0.243 | 0.425 | 0.352 | 0.36 | 0.731 | 0.75 | 0.777 | 0.75 | 0.634 | 0.24 | 0.244 | 0.243 | 0.238 | 0.152
EMC-BAC-2 | 1.07 | 1.2 | 1.26 | 1.01 | 0.95 | 0.397 | 0.394 | 0.447 | 0.448 | 0.432 | 0.388 | 0.402 | 0.356 | 0.25 | 0.309 | 0.557 | 0.545 | 0.534 | 0.372 | 0.209
EPLC-272H | 0.23 | 0.438 |  |  | 0.725 | 0.366 | 0.193 | 0.325 | 0.244 | 0.32 | 0.242 | 0.281 | 0.238 | 0.167 | 0.152 | 0.317 | 0.283 | 0.262 | 0.217 | 0.145
H3255 | 0.87 | 1 | 0.869 | 0.594 | 0.917 | 0.457 | 0.566 | 0.533 | 0.557 | 0.521 | 0.577 | 0.574 | 0.588 | 0.552 | 0.414 | 0.347 | 0.37 | 0.333 | 0.259 | 0.259
HARA | 0.715 | 0.828 | 0.945 |  | 0.173 | 0.258 | 0.198 | 0.22 |  | 0.239 | 0.641 | 0.553 | 0.535 | 0.0672 | 0.0972 | 0.492 | 0.509 | 0.614 | 0.343 | 0.113
HCC-15 | 0.218 | 0.296 | 0.271 |  | 0.34 | 0.215 | 0.199 | 0.209 | 0.191 | 0.213 | 0.773 | 0.715 | 0.771 | 0.203 | 0.178 | 0.567 | 0.48 | 0.487 | 0.19 | 0.184
HCC-44 | 1.12 | 1.01 | 0.818 | 0.68 | 0.912 | 0.624 | 0.511 | 0.618 | 0.555 | 0.6 | 0.458 | 0.812 | 0.505 | 0.484 | 0.151 | 0.252 | 0.175 | 0.146 | 0.1 | 0.0891
HCC-78 |  |  |  |  |  |  | 0.897 | 0.913 | 0.882 | 0.925 | 0.439 | 0.448 | 0.368 | 0.345 | 0.318 | 0.738 | 0.896 | 0.743 | 0.51 | 0.543
HCC-366 |  |  |  |  |  | 0.138 | 0.0729 | 0.156 | 0.119 | 0.127 | 0.944 | 1.01 | 1.33 | 0.204 | 0.0402 | 0.635 | 0.633 | 0.657 | 0.692 | 0.0242
